Source: ChEMBL document CHEMBL1201862, “PubChem BioAssay data set” (2004)
Calls of active or inactive are those of the source.

Legend:
[1] = cytotoxicity toward MDA-MB-231 breast cancer cells – cell-based, CellTiter-Glo luminescence, cherry-pick, cytotoxicity control for RAD54 inhibitor project, dose response (AID 651692); type: functional
[2] = target: DNA dC->dU-editing enzyme APOBEC-3G (Homo sapiens, UniProt Q9HC16); type: functional;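 also: Dose-response counterscreen measuring inhibition of APOBEC3G DNA deaminase activity, run while confirming APOBEC3A inhibitors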
DNA dC->dU-editing enzyme APOBEC-3G, sequence (Q9HC16 whole entry): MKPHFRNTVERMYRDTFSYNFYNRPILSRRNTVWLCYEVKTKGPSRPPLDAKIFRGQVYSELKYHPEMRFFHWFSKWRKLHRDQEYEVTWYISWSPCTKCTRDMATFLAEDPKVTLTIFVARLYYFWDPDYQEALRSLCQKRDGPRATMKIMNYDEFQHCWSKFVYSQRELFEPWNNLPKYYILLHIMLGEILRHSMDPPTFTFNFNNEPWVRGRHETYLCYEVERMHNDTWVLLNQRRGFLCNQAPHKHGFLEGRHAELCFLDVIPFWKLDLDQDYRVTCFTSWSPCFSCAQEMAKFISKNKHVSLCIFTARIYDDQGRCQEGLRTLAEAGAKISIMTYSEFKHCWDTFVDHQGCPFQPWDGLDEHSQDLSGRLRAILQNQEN

[3] = target: DNA dC->dU-editing enzyme APOBEC-3A (Homo sapiens, UniProt P31941); experiment: Dose Response confirmation of small molecule APOBEC3A DNA Deaminase Inhibitors via a fluorescence-based single-stranded DNA deaminase assay. [Related pubchem assays (depositor defined):AID493011, AID493024]; type: functional
DNA dC->dU-editing enzyme APOBEC-3A, sequence (P31941 whole entry): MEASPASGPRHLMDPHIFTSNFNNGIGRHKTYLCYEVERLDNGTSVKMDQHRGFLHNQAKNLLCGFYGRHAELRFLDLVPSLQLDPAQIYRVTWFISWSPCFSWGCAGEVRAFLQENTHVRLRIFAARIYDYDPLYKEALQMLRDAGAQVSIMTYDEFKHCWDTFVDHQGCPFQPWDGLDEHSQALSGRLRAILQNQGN

[4] = target: T1, DNA repair protein RAD52 homolog (Homo sapiens, UniProt P43351); type: functional, biochemical
T1 sequence (P43351 whole entry): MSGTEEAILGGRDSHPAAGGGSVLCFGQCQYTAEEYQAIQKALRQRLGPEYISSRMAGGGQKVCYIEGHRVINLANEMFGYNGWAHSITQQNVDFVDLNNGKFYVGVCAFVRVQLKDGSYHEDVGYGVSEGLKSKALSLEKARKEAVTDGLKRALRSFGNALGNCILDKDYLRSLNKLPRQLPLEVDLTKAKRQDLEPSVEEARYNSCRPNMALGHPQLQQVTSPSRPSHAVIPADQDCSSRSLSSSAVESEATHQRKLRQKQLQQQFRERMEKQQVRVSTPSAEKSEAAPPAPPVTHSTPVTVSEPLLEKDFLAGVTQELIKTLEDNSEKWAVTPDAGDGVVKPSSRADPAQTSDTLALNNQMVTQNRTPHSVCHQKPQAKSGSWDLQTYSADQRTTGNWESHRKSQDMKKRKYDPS

[5] = target: T2, DNA repair and recombination protein RAD54-like (Homo sapiens, UniProt Q92698); experiment: RAD54 Holliday junction migration blockers – biochemical, fluorescence, cherry-picked samples, dose series, confirmation (AID 651657); type: functional
T2 sequence (Q92698 whole entry): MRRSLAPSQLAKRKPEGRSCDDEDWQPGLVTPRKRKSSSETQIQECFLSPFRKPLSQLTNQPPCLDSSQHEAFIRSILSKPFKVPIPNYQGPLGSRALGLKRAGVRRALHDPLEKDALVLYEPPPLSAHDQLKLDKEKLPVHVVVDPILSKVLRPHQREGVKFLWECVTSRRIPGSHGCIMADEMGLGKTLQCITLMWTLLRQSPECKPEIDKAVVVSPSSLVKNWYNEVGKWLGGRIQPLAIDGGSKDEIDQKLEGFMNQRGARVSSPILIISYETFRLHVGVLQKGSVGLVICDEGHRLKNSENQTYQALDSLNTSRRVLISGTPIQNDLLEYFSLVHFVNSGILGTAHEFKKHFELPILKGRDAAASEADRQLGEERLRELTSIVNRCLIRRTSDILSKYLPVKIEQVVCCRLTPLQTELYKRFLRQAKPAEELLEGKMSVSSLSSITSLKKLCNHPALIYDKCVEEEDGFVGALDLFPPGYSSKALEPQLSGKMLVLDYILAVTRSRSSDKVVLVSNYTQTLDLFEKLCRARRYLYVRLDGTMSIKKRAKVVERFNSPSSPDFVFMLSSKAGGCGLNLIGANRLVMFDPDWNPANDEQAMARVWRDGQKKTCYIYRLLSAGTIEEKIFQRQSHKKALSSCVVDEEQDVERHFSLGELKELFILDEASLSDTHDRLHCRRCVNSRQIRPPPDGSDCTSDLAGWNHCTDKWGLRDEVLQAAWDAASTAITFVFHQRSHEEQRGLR

[6] = target: T3, Beta-2 adrenergic receptor (Homo sapiens, UniProt P07550); experiment: Dose response for HTS for Beta-2AR agonists via FAP method from Powderset3.; type: functional
T3 sequence (P07550 whole entry): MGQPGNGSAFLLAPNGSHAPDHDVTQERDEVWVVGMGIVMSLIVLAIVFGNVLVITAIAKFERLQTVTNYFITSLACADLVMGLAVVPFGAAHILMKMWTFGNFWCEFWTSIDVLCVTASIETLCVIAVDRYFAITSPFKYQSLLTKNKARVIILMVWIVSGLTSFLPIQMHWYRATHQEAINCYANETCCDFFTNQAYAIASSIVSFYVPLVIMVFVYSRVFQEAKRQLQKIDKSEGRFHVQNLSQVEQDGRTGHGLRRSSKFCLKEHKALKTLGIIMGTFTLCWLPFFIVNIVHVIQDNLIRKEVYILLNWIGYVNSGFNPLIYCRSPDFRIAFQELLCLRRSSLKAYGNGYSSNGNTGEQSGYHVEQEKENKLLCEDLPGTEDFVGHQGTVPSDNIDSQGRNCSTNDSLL

[7] = target: T3, Beta-2 adrenergic receptor; experiment: ADRB2 activation measured by internalization – cell-based, FAP fluorogen, flow cytometry, cherry pick 1, dose response (AID 588763); type: functional
[8] = target: ADP-ribosylation factor GTPase-activating protein 1 (Rattus norvegicus, UniProt Q62848); experiment: Fluorescence polarization-based biochemical high throughput dose response screening assay to identify inhibitors of ADP-ribosylation factor GTPase activating protein 1 (ARFGAP1).; type: functional
ADP-ribosylation factor GTPase-activating protein 1, sequence (Q62848 whole entry): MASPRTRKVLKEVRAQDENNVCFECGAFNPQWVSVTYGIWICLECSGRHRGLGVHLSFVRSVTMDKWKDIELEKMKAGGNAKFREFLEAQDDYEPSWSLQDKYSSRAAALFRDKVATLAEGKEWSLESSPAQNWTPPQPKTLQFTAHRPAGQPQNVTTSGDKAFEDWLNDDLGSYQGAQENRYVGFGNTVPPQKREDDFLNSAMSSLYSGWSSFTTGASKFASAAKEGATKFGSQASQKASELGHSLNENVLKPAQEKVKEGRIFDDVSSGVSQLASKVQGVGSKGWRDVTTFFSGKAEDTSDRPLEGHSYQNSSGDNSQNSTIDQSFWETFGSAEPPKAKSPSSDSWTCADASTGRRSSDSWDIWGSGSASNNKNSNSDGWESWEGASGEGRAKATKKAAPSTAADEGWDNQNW

[9] = target: T4, Trace amine-associated receptor 1 (Homo sapiens, UniProt Q96RJ0); experiment: Counterscreen for agonists of the human trace amine associated receptor 1 (hTAAR1): Fluorescence-based cell-based high throughput dose response assay to identify hTAAR1 agonist that also desensitize TAAR1 receptor response.; type: functional
T4 sequence (Q96RJ0 whole entry): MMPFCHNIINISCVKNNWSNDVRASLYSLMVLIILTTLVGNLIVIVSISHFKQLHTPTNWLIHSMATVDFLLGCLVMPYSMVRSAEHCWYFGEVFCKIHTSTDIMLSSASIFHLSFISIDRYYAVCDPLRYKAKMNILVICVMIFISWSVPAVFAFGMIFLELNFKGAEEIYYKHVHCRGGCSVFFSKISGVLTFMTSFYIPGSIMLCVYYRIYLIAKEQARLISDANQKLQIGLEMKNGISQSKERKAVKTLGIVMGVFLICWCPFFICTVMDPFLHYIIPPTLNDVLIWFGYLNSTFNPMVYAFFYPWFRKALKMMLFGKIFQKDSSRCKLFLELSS

[10] = cells; type: functional, cell-based
[11] = cells; type: functional, cell-based; remark: listed apart in the source
[12] = target: T4, Trace amine-associated receptor 1; experiment: Fluorescence-based cell-based high throughput dose response assay to identify agonists of the human trace amine associated receptor 1 (TAAR1).; type: functional
[13] = Trypanosoma cruzi growth suppression in host cells – NIH3T3 host cells, beta-gal luminescence, confirmation (AID 2044); type: functional, cell-based;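 also: intracellular parasites grown in NIH/3T3 mouse fibroblasts as host cells; luminescent beta-galactosidase reporter signal from transgenic T. cruzi replicating inside host cells; inhibitors lower the luminescence signal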
[14] = target: Fructose-bisphosphate aldolase (Mycobacterium tuberculosis, UniProt P9WQA3); experiment: Fluorescence-based biochemical high throughput dose response assay for inhibitors of the fructose-bisphosphate aldolase (FBA) of M. tuberculosis.; type: functional
Fructose-bisphosphate aldolase, sequence (P9WQA3 whole entry): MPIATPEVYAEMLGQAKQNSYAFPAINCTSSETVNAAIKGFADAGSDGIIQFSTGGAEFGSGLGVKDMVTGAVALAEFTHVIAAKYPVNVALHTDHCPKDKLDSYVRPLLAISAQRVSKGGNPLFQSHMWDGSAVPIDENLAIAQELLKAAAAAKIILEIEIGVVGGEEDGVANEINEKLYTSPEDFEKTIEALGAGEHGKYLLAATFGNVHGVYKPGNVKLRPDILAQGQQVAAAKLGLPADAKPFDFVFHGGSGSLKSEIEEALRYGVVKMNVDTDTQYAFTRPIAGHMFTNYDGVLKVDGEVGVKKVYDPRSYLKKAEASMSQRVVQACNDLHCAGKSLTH

[15] = NIH3T3 cell viability loss – ATP luminescence, mouse fibroblasts, counter-screen, dose response (AID 2010); type: functional, cell-based;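 also: cells exposed to compound for about 90 hours before reading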

CCN1CCN(c2ccc(NC(=O)c3cc4ccccc4cc3OC)cc2C)CC1
AC50 [1]: 36.5 µM (active)
IC50 [2]: 6.67 µM (active)
IC50 [3]: 4.24 µM (active)
AC50 [4]: 18.2 µM (active)
AC50 [5]: 52.2 µM (active)

CC1(C)Cc2c(c(N3CCCC3)nc3sc4c(N5CCN(CCO)CC5)ncnc4c23)CO1
EC50 [6]: 1.71 µM (active)
EC50 [7]: 8.76 µM (active)

CCN1CCN(C(=O)Cn2ncc3c4cc(C)ccc4nc-3c2O)CC1
IC50 [8]: 82.7 µM (inactive)

Fc1ccccc1N1CCN(C(c2cccs2)c2nnnn2CCc2ccccc2)CC1 (stereo not given)
IC50 [9]: 6.73 µM (active)
IC50 [10]: > 29.9 µM (inactive)
EC50 [11]: > 29.9 µM (inactive)
EC50 [12]: 4.06 µM (active)

Nc1nc2n(n1)C(c1cccs1)CC(c1ccc(Br)cc1)N2 (stereo not given)
EC50 [13]: 4.37 µM (active)
IC50 [14]: 4.61 µM (active)
EC50 [15]: > 60 µM (not active)
